Laboratory results from patent US12252701B2, “Chimeric antigen receptor T cell therapy” (KITE PHARMA, INC., priority 2020, dated 2025).

Assays:
[1] = test system: phospho-STAT panel (pSTAT3/4/5), CD3+ T cells; assay: phospho-STAT induction by IL-6, MesoScale Discovery phospho-STAT panel; type: cell-based, human; conditions: for pSTAT3 / pSTAT4 / pSTAT5: CD3+ T cells; for effect on phosphorylated-STAT-1, STAT-3 and STAT-5 levels: IL-6 stimulation 100 ng/ml, 20 minutes, 10 μM to 0.125 μM
Protocol: CD19 CAR-T, PBMC or CD3+ T cells (AllCells) were thawed and rested 0/N at 37° C. in R10 media. Cells were seeded at 700,000 cells/well and were either untreated or treated with 100 ng/ml IL6+drug at indicated concentrations for 20 minutes at 37° C. The cells were then washed with cold PBS and followed by 60 μl of Tris lysis buffer (provided by MSD) for 30 minutes on ice. Lysates were collected by spin down for 10 minutes at >10,000 rpm. 25 μl/well per condition was used for MesoScale Discovery (MSD) assay using the phospho-STAT panel (pSTAT3/4/5) from MesoScale Discovery following the manufacturer's protocol. pSTAT panel plates were blocked with 150 μl of blocker A solution for 1 hr at RT with shaking. Plates were washed three times with 1× Tris wash buffer. 25 μl of lysate samples were added per well, incubated 2 hr at room temperature or at 4° C. overnight. Plates were washed 3 times with 1× tris wash buffer and then 25 μl of detection antibody solution were added to each well and incubated for 1 hr at room temperature with shaking. Plates were washed and 1× read buffer added to each well and plates were read on the MSD instrument.

[2] = Clinical pharmacokinetic data converted to in vitro concentrations; conditions: human, in vivo
Text: Given the different potencies of the JAK inhibitors and different pharmacokinetic properties for each drug, it was sought to test each drug at a relevant range of physiological concentrations based on clinical dosing and reported pharmacokinetic data from repeat dose studies. Reported Cmax values in patient sera were converted to in vitro concentrations and adjusted for reported plasma protein binding.

[3] = test system: phospho-STAT-1, -3 and -5 in CD4, CD8 T cells and monocytes (CAR T product, PBMCs); assay: Intracellular phospho-STAT-1, -3, -5 by flow cytometry in immune cell subsets of CAR T product and PBMCs; type: cell-based, human; conditions: for pSTAT-5 inhibition: GM-CSF stimulated PBMC
Protocol: Further experiments were performed to look at impacts of JAK inhibitors on STAT phosphorylation in various immune cell subsets.

[4] = lower dose titration, IL-6 + drug 3.125 nM, MSD signal (No stim. 123, IL-6 alone 5767)
[5] = lower dose titration, IL-6 + drug 3.125 nM, MSD signal (No stim. 281, IL-6 alone 3624)
[6] = lower dose titration, IL-6 + drug 3.125 nM, MSD signal (No stim. 324, IL-6 alone 2352)
[7] = lower dose titration, IL-6 + drug 6.25 nM, MSD signal (No stim. 123, IL-6 alone 5767)
[8] = lower dose titration, IL-6 + drug 6.25 nM, MSD signal (No stim. 281, IL-6 alone 3624)
[9] = lower dose titration, IL-6 + drug 6.25 nM, MSD signal (No stim. 324, IL-6 alone 2352)
[10] = lower dose titration, IL-6 + drug 12.5 nM, MSD signal (No stim. 123, IL-6 alone 5767)
[11] = lower dose titration, IL-6 + drug 12.5 nM, MSD signal (No stim. 281, IL-6 alone 3624)
[12] = lower dose titration, IL-6 + drug 12.5 nM, MSD signal (No stim. 324, IL-6 alone 2352)
[13] = lower dose titration, IL-6 + drug 25 nM, MSD signal (No stim. 123, IL-6 alone 5767)
[14] = lower dose titration, IL-6 + drug 25 nM, MSD signal (No stim. 281, IL-6 alone 3624)
[15] = lower dose titration, IL-6 + drug 25 nM, MSD signal (No stim. 324, IL-6 alone 2352)
[16] = lower dose titration, IL-6 + drug 50 nM, MSD signal (No stim. 123, IL-6 alone 5767)
[17] = lower dose titration, IL-6 + drug 50 nM, MSD signal (No stim. 281, IL-6 alone 3624)
[18] = lower dose titration, IL-6 + drug 50 nM, MSD signal (No stim. 324, IL-6 alone 2352)
[19] = lower dose titration, IL-6 + drug 100 nM, MSD signal (No stim. 123, IL-6 alone 5767)
[20] = lower dose titration, IL-6 + drug 100 nM, MSD signal (No stim. 281, IL-6 alone 3624)
[21] = lower dose titration, IL-6 + drug 100 nM, MSD signal (No stim. 324, IL-6 alone 2352)
[22] = 100 ng/ml IL-6 + drug 10 uM, 20 min, MSD signal (No stim. 689, IL-6 alone 33641)
[23] = 100 ng/ml IL-6 + drug 10 uM, 20 min, MSD signal (No stim. 1964, IL-6 alone 15405)
[24] = 100 ng/ml IL-6 + drug 10 uM, 20 min, MSD signal (No stim. 9210, IL-6 alone 17743)
[25] = IL-6 + drug 0.125 uM, MSD signal (No stim. 689, IL-6 alone 33641)
[26] = IL-6 + drug 0.125 uM, MSD signal (No stim. 1964, IL-6 alone 15405)
[27] = IL-6 + drug 0.125 uM, MSD signal (No stim. 9210, IL-6 alone 17743)
[28] = IL-6 + drug 0.5 uM, MSD signal (No stim. 689, IL-6 alone 33641)
[29] = IL-6 + drug 0.5 uM, MSD signal (No stim. 1964, IL-6 alone 15405)
[30] = IL-6 + drug 0.5 uM, MSD signal (No stim. 9210, IL-6 alone 17743)
[31] = IL-6 + drug 1 uM, MSD signal (No stim. 689, IL-6 alone 33641)
[32] = IL-6 + drug 1 uM, MSD signal (No stim. 1964, IL-6 alone 15405)
[33] = IL-6 + drug 1 uM, MSD signal (No stim. 9210, IL-6 alone 17743)
[34] = IL-6 + drug 5 uM, MSD signal (No stim. 689, IL-6 alone 33641)
[35] = IL-6 + drug 5 uM, MSD signal (No stim. 1964, IL-6 alone 15405)
[36] = IL-6 + drug 5 uM, MSD signal (No stim. 9210, IL-6 alone 17743)

Structure (SMILES): CCS(=O)(=O)N1CC(CC#N)(n2cc(-c3ncnc4[nH]ccc34)cn2)C1 [baricitinib]
- pSTAT3 [1, 4]: 5208
- pSTAT4 [1, 5]: 2961
- pSTAT5 [1, 6]: 1408
- pSTAT3 [1, 7]: 2798
- pSTAT4 [1, 8]: 2801
- pSTAT5 [1, 9]: 1243
- pSTAT3 [1, 10]: 2528
- pSTAT4 [1, 11]: 1741
- pSTAT5 [1, 12]: 827
- pSTAT3 [1, 13]: 1441
- pSTAT4 [1, 14]: 1359
- pSTAT5 [1, 15]: 710
- pSTAT3 [1, 16]: 702
- pSTAT4 [1, 17]: 1059
- pSTAT5 [1, 18]: 586
- pSTAT3 [1, 19]: 288
- pSTAT4 [1, 20]: 690
- pSTAT5 [1, 21]: 471

Structure (SMILES): C[C@@H]1C[C@H]2[C@@H]3CCC4=CC(=O)C=C[C@]4(C)[C@@]3(F)[C@@H](O)C[C@]2(C)[C@@]1(O)C(=O)CO [dexamethasone]
- PPB adj. in Vitro concentration [2]: 67.4 nM
- clinically relevant dose level (in vitro concentration) [2]: ~70 nM
- pSTAT3 [1, 22]: 25688
- pSTAT4 [1, 23]: 11588
- pSTAT5 [1, 24]: 14850
- pSTAT3 [1, 25]: 26776
- pSTAT4 [1, 26]: 14052
- pSTAT5 [1, 27]: 16019
- pSTAT3 [1, 28]: 28004
- pSTAT4 [1, 29]: 15286
- pSTAT5 [1, 30]: 18936
- pSTAT3 [1, 31]: 27312
- pSTAT4 [1, 32]: 15357
- pSTAT5 [1, 33]: 18209
- pSTAT3 [1, 34]: 24869
- pSTAT4 [1, 35]: 11925
- pSTAT5 [1, 36]: 15761

Structure (SMILES): O=C(Nc1nc2cccc(-c3ccc(CN4CCS(=O)(=O)CC4)cc3)n2n1)C1CC1 [filgotinib]
- PPB adj. in Vitro concentration [2]: 1280 nM
- clinically relevant dose level (in vitro concentration) [2]: ~1000 nM
- pSTAT3 [1, 22]: 2169
- pSTAT4 [1, 23]: 2121
- pSTAT5 [1, 24]: 1610
- pSTAT3 [1, 25]: 23255
- pSTAT4 [1, 26]: 9977
- pSTAT5 [1, 27]: 10484
- pSTAT3 [1, 28]: 15242
- pSTAT4 [1, 29]: 5570
- pSTAT5 [1, 30]: 5170
- pSTAT3 [1, 31]: 11163
- pSTAT4 [1, 32]: 4642
- pSTAT5 [1, 33]: 3679
- pSTAT3 [1, 34]: 2667
- pSTAT4 [1, 35]: 2172
- pSTAT5 [1, 36]: 1797
- effect on phosphorylated-STAT-1, STAT-3 and STAT-5 levels [1]: reduction of phosphorylated-STAT-1, STAT-3 and STAT-5 levels in a dose-responsive manner
- pSTAT3 [1, 4]: 4968
- pSTAT4 [1, 5]: 3059
- pSTAT5 [1, 6]: 2812
- pSTAT3 [1, 7]: 6740
- pSTAT4 [1, 8]: 4324
- pSTAT5 [1, 9]: 2724
- pSTAT3 [1, 10]: 6547
- pSTAT4 [1, 11]: 3479
- pSTAT5 [1, 12]: 2253
- pSTAT3 [1, 13]: 5737
- pSTAT4 [1, 14]: 3452
- pSTAT5 [1, 15]: 2020
- pSTAT3 [1, 16]: 6248
- pSTAT4 [1, 17]: 3208
- pSTAT5 [1, 18]: 1951
- pSTAT3 [1, 19]: 5441
- pSTAT4 [1, 20]: 2047
- pSTAT5 [1, 21]: 1246
- inhibitory activity of each p-STAT, CD4 versus CD8 T cells ([3]; CAR T product): stronger inhibitory activity (magnitudes) of each p-STAT in CD4 T cells compared to CD8 T cells
- Primary Cell IL-6 pSTAT1 signaling (% inhibition) ([3]; CD4 CART cells): 45%
- Primary Cell IL-6 pSTAT3 signaling (% inhibition) ([3]; CD4 CART cells): 50%
- Primary Cell IL-6 pSTAT5 signaling (% inhibition) ([3]; CD4 CART cells): 59%
- Primary Cell IL-6 pSTAT1 signaling (% inhibition) ([3]; CD8 CART cells): 17%
- Primary Cell IL-6 pSTAT3 signaling (% inhibition) ([3]; CD8 CART cells): 38%
- Primary Cell IL-6 pSTAT5 signaling (% inhibition) ([3]; CD8 CART cells): 50%
- pSTAT-5 inhibition ([3]; CD3+ T cells): 40%
- pSTAT-5 inhibition ([3]; CD14+ monocytes): 28%
- effect on phosphorylated-STAT-1, -STAT-3 and -STAT5 levels ([3]; IL-6 stimulation): reduction of phosphorylated-STAT-1, -STAT-3 and -STAT5 levels
- Primary cell GM-CSF-pSTAT5, inhibition ([3]; Monocytes within bulk PBMCs): 28%
- Primary Cell IL-6 pSTAT1 signaling (% inhibition) ([3]; PBMC CD4 T cells): 67%
- Primary Cell IL-6 pSTAT3 signaling (% inhibition) ([3]; PBMC CD4 T cells): 52%
- Primary Cell IL-6 pSTAT5 signaling (% inhibition) ([3]; PBMC CD4 T cells): 83%
- Primary Cell IL-6 pSTAT1 signaling (% inhibition) ([3]; PBMC CD8 T cells): 26%
- Primary Cell IL-6 pSTAT3 signaling (% inhibition) ([3]; PBMC CD8 T cells): 37%
- Primary Cell IL-6 pSTAT5 signaling (% inhibition) ([3]; PBMC CD8 T cells): 49%
- Primary Cell IL-6 pSTAT1 signaling (% inhibition) ([3]; PBMC Monocytes): 50%
- Primary Cell IL-6 pSTAT3 signaling (% inhibition) ([3]; PBMC Monocytes): 74%
- Primary Cell IL-6 pSTAT5 signaling (% inhibition) ([3]; PBMC Monocytes): 34%
- inhibitory activity of each p-STAT, CD4 versus CD8 T cells ([3]; T cells from PBMCs): stronger inhibitory activity (magnitudes) of each p-STAT in CD4 T cells compared to CD8 T cells
- Primary cell GM-CSF-pSTAT5, inhibition ([3]; T cells within bulk PBMCs): 40%

Structure (SMILES): C[C@@H]1CCN(C(=O)CC#N)C[C@@H]1N(C)c1ncnc2[nH]ccc12 [tofacitinib]
- pSTAT3 [1, 22]: 2238
- pSTAT4 [1, 23]: 2159
- pSTAT5 [1, 24]: 1431
- pSTAT3 [1, 25]: 7733
- pSTAT4 [1, 26]: 3698
- pSTAT5 [1, 27]: 2424
- pSTAT3 [1, 28]: 3382
- pSTAT4 [1, 29]: 2503
- pSTAT5 [1, 30]: 1756
- pSTAT3 [1, 31]: 2301
- pSTAT4 [1, 32]: 2259
- pSTAT5 [1, 33]: 1528
- pSTAT3 [1, 34]: 2165
- pSTAT4 [1, 35]: 2033
- pSTAT5 [1, 36]: 1421
- effect on phosphorylated-STAT-1, STAT-3 and STAT-5 levels [1]: reduction of phosphorylated-STAT-1, STAT-3 and STAT-5 levels in a dose-responsive manner
- pSTAT3 [1, 4]: 5917
- pSTAT4 [1, 5]: 3525
- pSTAT5 [1, 6]: 1810
- pSTAT3 [1, 7]: 4586
- pSTAT4 [1, 8]: 3455
- pSTAT5 [1, 9]: 1808
- pSTAT3 [1, 10]: 3998
- pSTAT4 [1, 11]: 2304
- pSTAT5 [1, 12]: 1187
- pSTAT3 [1, 13]: 3115
- pSTAT4 [1, 14]: 1982
- pSTAT5 [1, 15]: 914
- pSTAT3 [1, 16]: 2148
- pSTAT4 [1, 17]: 1499
- pSTAT5 [1, 18]: 703
- pSTAT3 [1, 19]: 1006
- pSTAT4 [1, 20]: 918
- pSTAT5 [1, 21]: 513
